Measurements reported in publication PMC7415757, “Monocrotaline-induced liver toxicity in rat predicted by a combined in vitro physiologically based kinetic modeling approach” (Archives of Toxicology, 2020).

How the values were obtained:
[1] = Substrate depletion in incubations with pooled rat liver microsomes; assay type: in vitro ADME, rat (Sprague–Dawley)
Procedure: After 5 min of pre-incubation in a shaking water bath at 37 °C, the reactions were started by the addition of 1 mM NADPH. The reactions were carried out for 1 h and 2 h for liver and intestinal microsomes, respectively. For each incubation, a corresponding control incubated in the absence of NADPH was included by adding buffer instead of NADPH. To stop the metabolic conversion, 100 µl of ice-cold methanol was added and the sample was put on ice, then centrifuged at 5000 × g for 20 min at 4 °C using a microcentrifuge (CT15RE, VWR, Leuven, Belgium). Supernatants were diluted 200 times in 90% (v/v) acetonitrile and transferred to LC–MS vials. LC–MS analysis was performed using a Shimadzu Nexera XR LC-20AD SR UPLC system in tandem with a Shimadzu LCMS-8040 mass spectrometer (Shimadzu, Kyoto, Japan). From each incubation, 1 µl of supernatant was loaded onto a Luna Omega polar C18 100A LC column (1.6 µm 100 × 2.1 mm, Phenomenex) fitted with a FP polar precolumn (Phenomenex), using a flow rate of 0.3 ml/min. The temperature was set at 40 °C and 5 °C for column and sample, respectively. The mobile phase consisted of ultrapure water (solvent A) and acetonitrile (solvent B) both containing 0.1% (v/v) formic acid. The gradient began with 100% solvent A (0% B) for 1 min to wash away unwanted salts, followed by a linear gradient from 0 to 5% B till 8 min and a further increase to 100% B in 2 min, keeping the elution at 100% B for 0.5 min, then the column was set back to the starting conditions and equlibrated for 3.4 min before the next injection. […] For all incubations, three independent replicates were performed.
The ratio of Vmax and Km was calculated as the in vitro catalytic efficiency (kcat) expressed in […]. […] The rat liver weight of 8.5 g and small intestine weight of 3.5 g (see Table 1) (Brown et al. [1997]) were used to scaled the in vivo kcat values to values expressed in ml/min/tissue.

primary rat hepatocytes [2] = assay: WST-1 cytotoxicity assay with primary rat hepatocytes; assay type: cell-based, rat (Sprague–Dawley)
Procedure: The monocrotaline-induced liver toxicity was tested in vitro using the WST-1 assay which measures the formazan formation by the metabolically active cells from WST-1. Pooled cryopreserved plateable male rat (Sprague–Dawley) hepatocytes (RTCP10™) were thawed and seeded in accordance with the manufacturer’s protocol. Briefly, cells were seeded in 96-well plates (Greiner bio-one, Alphen aan den Rijn, The Netherlands) at a concentration of 5 × 10^5 cells/ml to give 1.25 × 10^4 cells/well and incubated at 37 °C, 5% CO2 in a humidified atmosphere for 6 h to allow cell adherence. […] The solvent DMSO (0.5% (v/v) final concentration in exposure medium) was used as a negative control and triton X (final concentration 1% (v/v) in exposure medium) served as a positive control in all cytotoxicity assays. After exposure for 24 h, 5 μl (1:20 dilution) WST-1 reagent was added to each well and plates were incubated for an additional 1 h. Then, the plate was shaken at 1000 rpm for 1 min, and absorbance was measured at 440 nm (background absorbance at 620 nm was subtracted) using a SpectraMax M2 (Molecular Devices, Sunnyvale, USA).
Data are presented as mean values ± SE from three independent experiments with three different batches of rat hepatocytes. The cell viability was expressed as percentage of the solvent control, with the solvent control set at 100%. The obtained concentration–response curves for hepatotoxicity were fitted with a symmetrical sigmoidal model (Hill slope) which was further used to derive IC50 values using log [inhibitor] vs. normalized response using GraphPad Prism software (version 5.00 for Windows, GraphPad software, San Diego, USA).

[3] = Fraction unbound in rat serum by rapid equilibrium dialysis (RED); assay type: in vitro ADME; settings: 37 °C, read-out: fub, in vivo (fraction unbound)
Procedure: The fub,in vivo was determined by rapid equilibrium dialysis (RED) (Waters et al. [2008]). […] The device was sealed with tape and incubated at 37 °C on a shaker at 250 rpm. After incubation for 5 h when the system reached equilibrium (van Liempd et al. [2011]), 50 µl of post-dialysis samples was collected from the serum and buffer chambers into separate eppendorf tubes. Subsequently, 50 µl of rat serum was added to the buffer samples and 50 µl of PBS was added to the serum samples. To precipitate the protein, 300 µl of ice-cold acetonitrile (90% v/v) was added to both tubes. After putting the mixtures on ice for 30 min, the mixtures were centrifuged at 15,000 g for 30 min at 4 °C, and the supernatants were diluted five times in 90% (v/v) acetonitrile and analyzed by LC–MS as described above. The measurements were performed in triplicate.

primary rat hepatocytes [4] = assay: Uptake of monocrotaline into primary rat hepatocytes (Tu et al. 2013); assay type: cell-based; settings: scaled with 120 mg protein/g liver and 34 g liver/kg bw from Tu et al. ([2013])
[5] = system: human liver cell line HepaRG; settings: in vitro γH2AX induction potency, ref Louisse et al. ([2019]); cited from earlier work
male Sprague–Dawley rats = settings: IP single dose 0; 100; 200; 225; 300, 12 h after dosing, BW 100–130 g; ref Copple et al. [2002]; cited from earlier work
DNA adducts = system: DNA adducts; parameters: method as in Xia et al. ([2013]); settings: moderate tumour formation; ref Xia et al. ([2013]); cited from earlier work
primary rat hepatocytes [6] = system: primary rat hepatocytes; parameters: method as in Tu et al. ([2013]); settings: 2 µM, pH 7.4; ref Tu et al. ([2013]); cited from earlier work
[7] = Reported blood kinetics after iv [14C] monocrotaline (Estep et al. 1991); assay type: in vivo; settings: rat, iv 60 mg/kg bw, from Estep et al. 1991
Procedure: The reported concentration nmol/g is assumed to be equal to nmol/ml or µM. The reported blood concentration is calculated as the sum of the plasma and RBC concentration.

[8] = liver, 35 mg microsomal protein/g liver, present study

Q: For `C[C@H]1C(=O)O[C@@H]2CCN3CC=C(COC(=O)[C@](C)(O)[C@]1(C)O)[C@H]23` [Monocrotaline], which Km ([1]; Sprague-Dawley, rat, pH 7.4, liver, present study) is on record?
A: 9.2 µM

Q: And the “scaled liver kcat, times lower than lasiocarpine” value ([1]; liver)?
A: 41.8 times

Q: What about the “scaled liver kcat, times lower than riddelliine” value ([1]; liver) of the same molecule?
A: 4.3 times

Q: And the Scaled kcat ([1]; liver weight 8.5 g, present study)?
A: 1.9 ml/min/ tissue

Q: What about the “Scaled Vmax” value [1, 8] of the same molecule?
A: 2.1 nmol/min/g tissue

Q: And the Scaled kcat [1, 8]?
A: 0.2 ml/min/g tissue

Q: What about the “KmLM1, affinity constant” value ([1]; liver, PBK model code) of the same molecule?
A: 9.22 µmol/L

Q: What about the “VmaxLM1c, unscaled maximum rate of metabolism” value ([1]; liver, PBK model code) of the same molecule?
A: 0.06 nmol/min-1/mg protein

Q: What about the Vmax ([1]; liver, present study) of the same molecule?
A: 0.06 nmol/min/mg microsomal protein

Q: And the IC50 (primary rat hepatocytes [2]; Rattus norvegicus, Hepatocyte, 24 h exposure, serum-free medium, WST-1, read-out: IC50 cell viability)?
A: 225 µM

Q: What about the “decrease in cell viability” value (primary rat hepatocytes [2]; highest concentration 600 µM, 24 h) of the same molecule?
A: over 60%

Q: And the fraction unbound at 5 h, 150 µM [3]?
A: 0.53 ± 0.12

Q: And the “rate for uptake in the liver of rats, scaled” value (primary rat hepatocytes [4])?
A: 3.55 µmol/h/kg bw

Q: And the potency group [5]?
A: group 3

Q: What about the “POD: NOAEL, increased plasma ALT” value (male Sprague–Dawley rats) of the same molecule?
A: 100 mg/kg bw

Q: What about the “ranking based on the formation of DNA adducts” value (DNA adducts) of the same molecule?
A: group II

Q: What about the “overall rate for uptake into primary rat hepatocytes” value (primary rat hepatocytes [6]) of the same molecule?
A: 14.5 pmol/mg protein/min

Q: And the “Reported concentration of monocrotaline equivalents, blood (plasma + RBCs)” value (from here on “Reported concentration”) ([7]; 5 min)?
A: 257.00 µM

Q: What about the “Reported concentration” value ([7]; 15 min) of the same molecule?
A: 195.34 µM

Q: What about the “Reported concentration” value ([7]; 30 min) of the same molecule?
A: 167.41 µM

Q: What about the “Reported concentration” value ([7]; 60 min) of the same molecule?
A: 149.97 µM

Q: And the “Reported concentration” value ([7]; 120 min)?
A: 134.54 µM

Q: And the “Reported concentration” value ([7]; 180 min)?
A: 121.75 µM

Q: And the “Reported concentration” value ([7]; 240 min)?
A: 116.71 µM

Q: And the “Reported concentration” value ([7]; 300 min)?
A: 92.88 µM

Q: And the “Reported concentration” value ([7]; 360 min)?
A: 97.66 µM

Q: And the “Reported concentration” value ([7]; 420 min)?
A: 92.00 µM
